Patent publication EP0454367B1, “Growth hormone releasing factor analogs” (ELI LILLY AND COMPANY, priority 1990, dated 1991)
Starred links: 1 amine or outer side, 2 acyl side, 3 side chain; linkers in the order of their positions; H or OH if unused. Non-standard residues stand in square brackets, D forms with d. Residues, ends and D or L forms follow the SMILES beside them. *: point of attachment. X3 = O=C([C@H](Cc1ccc(O)cc1)N(CC(O)CO)[*:1])[*:2]; X2 = C[C@@H](C(=O)[*:2])N(CC(O)CO)[*:1]; X1 = O=C([C@@H]1CCCN1CC(O)CO)*; NMeA = CN[C@@H](C)C(=O)O

target: T1, Rat Pituitary Cells (Rattus norvegicus, UniProt Q02644); assay: GRF-analog mediated GH secretion from rat pituitary cells (method of Heiman et al.); format: cell-based; details: EC50 [R^12,T^15,R^21,L^27]hGRF(1-29)NH2 / EC50 analog
T1 sequence (Q02644 23-464): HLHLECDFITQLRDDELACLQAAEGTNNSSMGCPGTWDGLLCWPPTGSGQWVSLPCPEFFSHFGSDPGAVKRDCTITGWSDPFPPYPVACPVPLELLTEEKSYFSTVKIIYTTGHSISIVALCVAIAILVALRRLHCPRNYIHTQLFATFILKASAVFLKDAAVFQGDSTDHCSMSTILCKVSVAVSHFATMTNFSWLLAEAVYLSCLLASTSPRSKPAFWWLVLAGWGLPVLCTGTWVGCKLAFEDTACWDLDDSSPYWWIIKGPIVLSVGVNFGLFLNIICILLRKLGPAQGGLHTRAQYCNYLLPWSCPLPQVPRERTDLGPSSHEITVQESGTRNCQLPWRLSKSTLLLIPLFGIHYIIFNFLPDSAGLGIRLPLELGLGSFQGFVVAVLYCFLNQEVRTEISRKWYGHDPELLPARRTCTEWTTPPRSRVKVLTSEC
Procedure: The polypeptide compounds of the invention may be assayed in numerous systems. One in vivo assay is carried out in sodium pentobarbital-anesthetized rats. Wehrenberg et al., Biochem. Biophys. Res. Commun. 109:382 (1982). Growth hormone release is measured in vitro with rat anterior pituitary cells. Heiman et al., Endocrinol. 116:410 (1985). Assays are also performed in wether lambs as described in the Examples provided hereinafter.
Various bGRF peptide analogs were synthesized by the solid phase synthesis method as described in U.S. Patent 4,617,149. The compounds were assayed in rat pituitary cells by the method of Heiman et al., Endocrinol. 116:410 (1985). The analogs are based on the sequence of the first 29 amino acids of human growth hormone releasing factor with the substitutions listed.

Row | Compound | Relative Potency (% of std)
1 | CC[C@H](C)[C@H](NC(=O)[C@H](C)NC(=O)[C@H](CC(=O)O)NC(=O)[C@H](C)NC(=O)[C@H](Cc1ccc(O)cc1)NC(=O)[C@@H]1CCCN1CC(O)CO)C(=O)N[C@@H](Cc1ccccc1)C(=O)N[C@H](C(=O)N[C@@H](CC(N)=O)C(=O)N[C@@H](CO)C(=O)N[C@@H](Cc1ccc(O)cc1)C(=O)N[C@@H](CCCNC(=N)N)C(=O)N[C@@H](CCCNC(=N)N)C(=O)N[C@H](C(=O)N[C@@H](CC(C)C)C(=O)N[C@H](C(=O)N[C@@H](CCC(N)=O)C(=O)N[C@@H](CC(C)C)C(=O)N[C@@H](CO)C(=O)N[C@@H](C)C(=O)N[C@@H](CCCNC(=N)N)C(=O)N[C@@H](CCCNC(=N)N)C(=O)N[C@@H](CC(C)C)C(=O)N[C@@H](CC(C)C)C(=O)N[C@@H](CCC(N)=O)C(=O)N[C@@H](CC(=O)O)C(=O)N[C@H](C(=O)N[C@@H](CC(C)C)C(=O)N[C@@H](CO)C(=O)N[C@@H](CCCNC(=N)N)C(N)=O)[C@@H](C)CC)[C@@H](C)O)C(C)C)[C@@H](C)O (some centres unmarked) [DHP[P^0,R^12,T^15,R^21,L^27]hGRF(1-29)NH2] (X1-YADAIFTNSYRRVLTQLSARRLLQDILSR-NH2) | .13 % of std
2 | CC[C@H](C)[C@H](NC(=O)[C@H](C)NC(=O)[C@H](CC(=O)O)NC(=O)[C@H](C)NC(=O)[C@H](Cc1ccc(O)cc1)NCC(O)CO)C(=O)N[C@@H](Cc1ccccc1)C(=O)N[C@H](C(=O)N[C@@H](CC(N)=O)C(=O)N[C@@H](CO)C(=O)N[C@@H](Cc1ccc(O)cc1)C(=O)N[C@@H](CCCNC(=N)N)C(=O)N[C@@H](CCCNC(=N)N)C(=O)N[C@H](C(=O)N[C@@H](CC(C)C)C(=O)N[C@H](C(=O)N[C@@H](CCC(N)=O)C(=O)N[C@@H](CC(C)C)C(=O)N[C@@H](CO)C(=O)N[C@@H](C)C(=O)N[C@@H](CCCNC(=N)N)C(=O)N[C@@H](CCCNC(=N)N)C(=O)N[C@@H](CC(C)C)C(=O)N[C@@H](CC(C)C)C(=O)N[C@@H](CCC(N)=O)C(=O)N[C@@H](CC(=O)O)C(=O)N[C@H](C(=O)N[C@@H](CC(C)C)C(=O)N[C@@H](CO)C(=O)N[C@@H](CCCNC(=N)N)C(N)=O)[C@@H](C)CC)[C@@H](C)O)C(C)C)[C@@H](C)O (some centres unmarked) [DHP[R^12,T^15,R^21,L^27]hGRF(1-29)NH2] (H-[X3]ADAIFTNSYRRVLTQLSARRLLQDILSR-NH2) | .8 % of std
3 | CC[C@H](C)[C@H](NC(=O)[C@H](C)NC(=O)[C@H](CC(=O)O)NC(=O)[C@H](C)NC(=O)[C@H](Cc1ccc(O)cc1)NC(=O)[C@@H]1CCCN1C(=O)[C@@H]1CCCN1CC(O)CO)C(=O)N[C@@H](Cc1ccccc1)C(=O)N[C@H](C(=O)N[C@@H](CC(N)=O)C(=O)N[C@@H](CO)C(=O)N[C@@H](Cc1ccc(O)cc1)C(=O)N[C@@H](CCCNC(=N)N)C(=O)N[C@@H](CCCNC(=N)N)C(=O)N[C@H](C(=O)N[C@@H](CC(C)C)C(=O)N[C@H](C(=O)N[C@@H](CCC(N)=O)C(=O)N[C@@H](CC(C)C)C(=O)N[C@@H](CO)C(=O)N[C@@H](C)C(=O)N[C@@H](CCCNC(=N)N)C(=O)N[C@@H](CCCNC(=N)N)C(=O)N[C@@H](CC(C)C)C(=O)N[C@@H](CC(C)C)C(=O)N[C@@H](CCC(N)=O)C(=O)N[C@@H](CC(=O)O)C(=O)N[C@H](C(=O)N[C@@H](CC(C)C)C(=O)N[C@@H](CO)C(=O)N[C@@H](CCCNC(=N)N)C(N)=O)[C@@H](C)CC)[C@@H](C)O)C(C)C)[C@@H](C)O (some centres unmarked) [DHP[P^-1,P^0,R^12,T^15,R^21,L^27]hGRF(1-29)NH2] (X1-PYADAIFTNSYRRVLTQLSARRLLQDILSR-NH2) | .14 % of std
4 | CC[C@H](C)[C@H](NC(=O)[C@H](C)NC(=O)[C@H](CC(=O)O)NC(=O)[C@H](C)NC(=O)[C@H](Cc1ccc(O)cc1)NC(=O)[C@H](C)NC)C(=O)N[C@@H](Cc1ccccc1)C(=O)N[C@H](C(=O)N[C@@H](CC(N)=O)C(=O)N[C@@H](CO)C(=O)N[C@@H](Cc1ccc(O)cc1)C(=O)N[C@@H](CCCNC(=N)N)C(=O)N[C@@H](CCCNC(=N)N)C(=O)N[C@H](C(=O)N[C@@H](CC(C)C)C(=O)N[C@H](C(=O)N[C@@H](CCC(N)=O)C(=O)N[C@@H](CC(C)C)C(=O)N[C@@H](CO)C(=O)N[C@@H](C)C(=O)N[C@@H](CCCNC(=N)N)C(=O)N[C@@H](CCCNC(=N)N)C(=O)N[C@@H](CC(C)C)C(=O)N[C@@H](CC(C)C)C(=O)N[C@@H](CCC(N)=O)C(=O)N[C@@H](CC(=O)O)C(=O)N[C@H](C(=O)N[C@@H](CC(C)C)C(=O)N[C@@H](CO)C(=O)N[C@@H](CCCNC(=N)N)C(N)=O)[C@@H](C)CC)[C@@H](C)O)C(C)C)[C@@H](C)O [[N-Me-A^0,R^12,T^15,R^21,L^27]hGRF(1-29)NH2] (H-[NMeA]YADAIFTNSYRRVLTQLSARRLLQDILSR-NH2) | .17 % of std
5 | CC[C@H](C)[C@H](NC(=O)[C@H](C)NC(=O)[C@H](CC(=O)O)NC(=O)[C@H](C)NC(=O)[C@H](Cc1ccc(O)cc1)NC(=O)[C@H](C)NCC(O)CO)C(=O)N[C@@H](Cc1ccccc1)C(=O)N[C@H](C(=O)N[C@@H](CC(N)=O)C(=O)N[C@@H](CO)C(=O)N[C@@H](Cc1ccc(O)cc1)C(=O)N[C@@H](CCCNC(=N)N)C(=O)N[C@@H](CCCNC(=N)N)C(=O)N[C@H](C(=O)N[C@@H](CC(C)C)C(=O)N[C@H](C(=O)N[C@@H](CCC(N)=O)C(=O)N[C@@H](CC(C)C)C(=O)N[C@@H](CO)C(=O)N[C@@H](C)C(=O)N[C@@H](CCCNC(=N)N)C(=O)N[C@@H](CCCNC(=N)N)C(=O)N[C@@H](CC(C)C)C(=O)N[C@@H](CC(C)C)C(=O)N[C@@H](CCC(N)=O)C(=O)N[C@@H](CC(=O)O)C(=O)N[C@H](C(=O)N[C@@H](CC(C)C)C(=O)N[C@@H](CO)C(=O)N[C@@H](CCCNC(=N)N)C(N)=O)[C@@H](C)CC)[C@@H](C)O)C(C)C)[C@@H](C)O (some centres unmarked) [DHP[A^0,R^12,T^15,R^21,L^27]hGRF(1-29)NH2] (H-[X2]YADAIFTNSYRRVLTQLSARRLLQDILSR-NH2) | .335 % of std
